Source: US8066985B2, “Reovirus for the treatment of cellular proliferative disorders” (Oncolytics Biotech Inc., priority 1999, dated 2011)
Entries after “also recorded” stand apart in the source; their conditions may differ.

Tests used:
NIH 3T3 cells = experiment: 2-aminopurine effect on viral protein synthesis; assay type: cell-based, mouse; conditions: 5 mM, concurrently with reovirus; label 12 to 48 h postinfection
Procedure: To test this idea, 2-aminopurine was used. […] Accordingly, NIH 3T3 cells were exposed to 5 mM 2-aminopurine concurrently with exposure to reovirus. The cells were labeled with [^35S]methionine from 12 to 48 h postinfection, and lysates were harvested and analyzed by SDS-PAGE.

H-Ras-transformed cells = experiment: PD98059 effect on reovirus protein synthesis; assay type: cell-based; conditions: 50 μM, MOI approximately 10 p.f.u./cell, label 12 to 48 hours
Procedure: (§1) H-Ras-transformed cells were grown to 80% confluency and infected with reovirus at an MOI of approximately 10 p.f.u./cell. PD98059 (Calbiochem), dissolved in dimethylsulfoxide (DMSO), was applied to the cells at the same time as the virus (final concentration of PD98059 was 50 μM). The control cells received an equivalent volume of DMSO. The cells were labeled with ^35S-methionine from 12 to 48 hours post-infection. Lysates were then prepared, immunoprecipitated with the polyclonal anti-reovirus serotype 3 serum and analyzed by SDS-PAGE.

ERK1/2 phosphorylation = experiment: PD98059 effect on ERK1/2 phosphorylation; assay type: cell-based; conditions: 50 μM
Text: The PhosphoPlus p44/42 MAP kinase (Thr202/Tyr204) Antibody kit (New England Biolabs) was used for the detection of MAP kinase in cell lysates according to the manufacturer's instructions. Briefly, subconfluent monolayer cultures were lysed with the recommended SDS-containing sample buffer, and subjected to SDS-PAGE, followed by electroblotting onto nitrocellulose paper. The membrane was then probed with the primary antibody (anti-total MAPK or anti-phospho-MAPK), followed by the horseradish peroxidase (HRP)-conjugated secondary antibody as described in the manufacturer's instruction manual.
as §1
As expected, PD98059 had no effect on reovirus-induced PKR phosphorylation in untransformed NIH-3T3 cells (data not shown).

PKR = experiment: PD98059 effect on PKR phosphorylation; assay type: cell-based

| SMILES | level of viral protein synthesis (NIH 3T3 cells) | effect on viral protein synthesis (H-Ras-transformed cells) | inhibition of reovirus protein synthesis (H-Ras-transformed cells) | ERK1/2 phosphorylation (ERK1/2 phosphorylation) | PKR phosphorylation state (PKR; infected H-Ras-transformed cells, 50 μM) | effect on reovirus-induced PKR phosphorylation (PKR; untransformed NIH-3T3 cells) |
| --- | --- | --- | --- | --- | --- | --- |
| Nc1ncc2[nH]cnc2n1 [2-aminopurine] | significantly higher level of viral protein synthesis; also recorded: drastic enhancement of reovirus protein synthesis | – | – | – | – | – |
| COc1cccc(-c2cc(=O)c3ccccc3o2)c1N [PD98059] | – | slight enhancement of viral protein synthesis | did not inhibit reovirus protein synthesis | effectively inhibited ERK1/2 phosphorylation | remained unphosphorylated | no effect |
